Biological target: Btk (Homo sapiens, UniProt Q06187)
Assay: crystal structure of human Btk in complex with PLS-123 (Figure 1B); IC50 also stated; Western blot of p-Tyr223/p-Tyr551 Btk in cells
Format: binding
Text: crystal structure of human Btk in complex with PLS-123 (Figure 1B); IC50 also stated; Western blot of p-Tyr223/p-Tyr551 Btk in cells on Btk | Crystal structure of the human Btk in complex with PLS-123.

Btk, sequence (Q06187 2-659): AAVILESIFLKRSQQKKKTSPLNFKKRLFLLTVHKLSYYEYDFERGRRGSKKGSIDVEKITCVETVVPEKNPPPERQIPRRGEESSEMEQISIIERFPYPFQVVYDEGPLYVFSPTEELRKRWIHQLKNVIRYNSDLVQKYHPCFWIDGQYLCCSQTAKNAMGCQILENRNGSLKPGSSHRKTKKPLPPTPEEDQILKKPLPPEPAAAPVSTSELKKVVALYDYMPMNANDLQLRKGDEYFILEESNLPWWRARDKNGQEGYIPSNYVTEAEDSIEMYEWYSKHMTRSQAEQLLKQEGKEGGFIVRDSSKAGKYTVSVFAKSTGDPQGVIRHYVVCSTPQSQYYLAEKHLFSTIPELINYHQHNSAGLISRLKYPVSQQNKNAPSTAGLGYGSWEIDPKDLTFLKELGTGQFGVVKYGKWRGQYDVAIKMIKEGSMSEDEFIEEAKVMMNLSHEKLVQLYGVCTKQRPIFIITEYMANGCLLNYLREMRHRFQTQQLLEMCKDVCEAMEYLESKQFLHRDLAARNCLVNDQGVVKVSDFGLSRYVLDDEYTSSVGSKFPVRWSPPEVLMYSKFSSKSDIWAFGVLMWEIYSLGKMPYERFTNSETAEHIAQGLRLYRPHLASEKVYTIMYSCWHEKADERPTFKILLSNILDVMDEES

`C=CC(=O)NCC(=O)Nc1cccc(Nc2ncc(NC(=O)c3cc(NC(=O)c4cccc(C(F)(F)F)c4)ccc3C)cn2)c1` [PLS-123] was tested. Which IC50 did it give?
The IC50 was under 5 nM.

Reference: paper PMC4558140, “Irreversible dual inhibitory mode: the novel Btk inhibitor PLS-123 demonstrates promising anti-tumor activity in human B-cell lymphoma” (Oncotarget, 2015)
